Data published in patent US20210085640A1, “ACYLATED CATECHIN POLYPHENOLS AND METHODS OF THEIR USE FOR THE TREATMENT OF CANCER” (Flagship Pioneering Innovations V, Inc., priority 2018, published 2021).

Key:
Format in all cases: cell-based
[1] = tested on: HCT 116 colorectal cancer cells; assay: Cancer cell survival (CellTiter-Glo), HCT 116; details: HCT 116 cells, 72 h
Procedure, shortened: (§1)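 Cells seeded at 4×10^3 cells/well, incubated overnight, then treated in triplicate at nine concentrations for 72 h at 37 C, 5% CO2. Viability by CellTiter-Glo luminescence, survival % normalized to untreated and medium controls; IC50 derived.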

A-431 skin cancer cells = assay: Cancer cell survival (CellTiter-Glo), A-431; parameters: Cell survival at given concentration: unit not given here; details: A-431 cells, 72 h
Procedure, shortened: as §1

[2] = tested on: Daudi lymphoma cancer cells; assay: Cancer cell survival (CellTiter-Glo), Daudi; details: 72 h
Procedure, shortened: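 Daudi cells (4×10^3/well) were exposed for 72 h at 37 °C to nine concentrations of compound, added as 10× solutions spanning 1 μM–10 mM (fatty acids) or 100 nM–1 mM (others). CellTiter-Glo luminescence gave % survival versus untreated, medium-blank corrected; IC50 derived.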

MCF7 breast cancer cells = assay: Cancer cell survival (CellTiter-Glo), MCF7; details: 72 h
Procedure, shortened: as §1

AGS stomach cancer cells = assay: Cancer cell survival (CellTiter-Glo), AGS; parameters: Cell survival at given concentration: unit not given here
Procedure, shortened: as §1

A549 lung cancer cells = assay: Cancer cell survival (CellTiter-Glo), A549; details: 72 h
Procedure, shortened: as §1

[3] = tested on: PC-3 prostate cancer cells; assay: Cancer cell survival (CellTiter-Glo), PC-3; details: PC-3 cells, 72 h
Procedure, shortened: as §1

T24 bladder cancer cells = assay: Cancer cell survival (CellTiter-Glo), T24; details: 72 h
Procedure, shortened: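 T24 cells seeded at 4×10^3 cells/well overnight, then exposed 72 h at 37 C, 5% CO2 to nine concentrations in triplicate. Survival measured by CellTiter-Glo luminescence relative to untreated and medium controls; IC50 derived.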

**Q.** With `CC(O)CCO` (stereo not drawn) [butanediol] as the compound, how does the “Cell survival at given concentration” value ([1]; 1 μM, Table 6.2) read?
**A.** 0.98

**Q.** And the “Cell survival at given concentration” value ([1]; 3 μM, Table 6.2)?
**A.** 0.96

**Q.** What about the “Cell survival at given concentration” value ([1]; 10 μM, Table 6.2) of the same compound?
**A.** 0.98

**Q.** What about the “Cell survival at given concentration” value ([1]; 32 μM, Table 6.2) of the same compound?
**A.** 0.97

**Q.** And the “Cell survival at given concentration” value ([1]; 100 μM, Table 6.2)?
**A.** 1.00

**Q.** What about the “Cell survival at given concentration” value ([1]; 317 μM) of the same compound?
**A.** 1.02

**Q.** What about the “Cell survival at given concentration” value ([1]; 1 mM) of the same compound?
**A.** 1.01

**Q.** And the “Cell survival at given concentration” value ([1]; 3 mM)?
**A.** 0.99

**Q.** What about the “Cell survival at given concentration” value ([1]; 10 mM) of the same compound?
**A.** 0.95

**Q.** And the “Cell survival at given concentration” value (A-431 skin cancer cells; 1 μM, Table 9.2)?
**A.** 1.02

**Q.** What about the “Cell survival at given concentration” value (A-431 skin cancer cells; 3 μM, Table 9.2) of the same compound?
**A.** 1.03

**Q.** What about the “Cell survival at given concentration” value (A-431 skin cancer cells; 10 μM, Table 9.2) of the same compound?
**A.** 1.04

**Q.** What about the “Cell survival at given concentration” value (A-431 skin cancer cells; 32 μM, Table 9.2) of the same compound?
**A.** 1.04

**Q.** And the “Cell survival at given concentration” value (A-431 skin cancer cells; 100 μM, Table 9.2)?
**A.** 1.03

**Q.** What about the “Cell survival at given concentration” value (A-431 skin cancer cells; 317 μM) of the same compound?
**A.** 1.04

**Q.** And the “Cell survival at given concentration” value (A-431 skin cancer cells; 1 mM)?
**A.** 1.02

**Q.** What about the “Cell survival at given concentration” value (A-431 skin cancer cells; 3 mM) of the same compound?
**A.** 1.02

**Q.** What about the “Cell survival at given concentration” value (A-431 skin cancer cells; 10 mM) of the same compound?
**A.** 1.01

**Q.** What about the “Cell survival at given concentration” value ([2]; 1 μM, Table 4.2) of the same compound?
**A.** 0.98

**Q.** What about the “Cell survival at given concentration” value ([2]; 3 μM, Table 4.2) of the same compound?
**A.** 0.97

**Q.** What about the “Cell survival at given concentration” value ([2]; 10 μM, Table 4.2) of the same compound?
**A.** 0.97

**Q.** And the “Cell survival at given concentration” value ([2]; 32 μM, Table 4.2)?
**A.** 0.98

**Q.** What about the “Cell survival at given concentration” value ([2]; 100 μM, Table 4.2) of the same compound?
**A.** 1.00

**Q.** What about the “Cell survival at given concentration” value ([2]; 317 μM) of the same compound?
**A.** 1.01

**Q.** What about the “Cell survival at given concentration” value ([2]; 1 mM) of the same compound?
**A.** 1.00

**Q.** What about the “Cell survival at given concentration” value ([2]; 3 mM) of the same compound?
**A.** 1.00

**Q.** And the “Cell survival at given concentration” value ([2]; 10 mM)?
**A.** 1.00

**Q.** What about the “Cell survival at given concentration” value (MCF7 breast cancer cells; 1 μM, Table 5.2) of the same compound?
**A.** 1.00

**Q.** And the “Cell survival at given concentration” value (MCF7 breast cancer cells; 3 μM, Table 5.2)?
**A.** 0.99

**Q.** And the “Cell survival at given concentration” value (MCF7 breast cancer cells; 10 μM, Table 5.2)?
**A.** 0.98

**Q.** What about the “Cell survival at given concentration” value (MCF7 breast cancer cells; 32 μM, Table 5.2) of the same compound?
**A.** 1.02

**Q.** And the “Cell survival at given concentration” value (MCF7 breast cancer cells; 100 μM, Table 5.2)?
**A.** 1.03

**Q.** And the “Cell survival at given concentration” value (MCF7 breast cancer cells; 317 μM)?
**A.** 1.01

**Q.** And the “Cell survival at given concentration” value (MCF7 breast cancer cells; 1 mM)?
**A.** 1.00

**Q.** What about the “Cell survival at given concentration” value (MCF7 breast cancer cells; 3 mM) of the same compound?
**A.** 0.98

**Q.** And the “Cell survival at given concentration” value (MCF7 breast cancer cells; 10 mM)?
**A.** 0.96

**Q.** And the “Cell survival at given concentration” value (AGS stomach cancer cells; 1 μM, Table 10.2)?
**A.** 1.01

**Q.** What about the “Cell survival at given concentration” value (AGS stomach cancer cells; 3 μM, Table 10.2) of the same compound?
**A.** 1.02

**Q.** And the “Cell survival at given concentration” value (AGS stomach cancer cells; 10 μM, Table 10.2)?
**A.** 1.03

**Q.** And the “Cell survival at given concentration” value (AGS stomach cancer cells; 32 μM, Table 10.2)?
**A.** 1.05

**Q.** What about the “Cell survival at given concentration” value (AGS stomach cancer cells; 100 μM, Table 10.2) of the same compound?
**A.** 1.04

**Q.** What about the “Cell survival at given concentration” value (AGS stomach cancer cells; 317 μM) of the same compound?
**A.** 1.02

**Q.** And the “Cell survival at given concentration” value (AGS stomach cancer cells; 1 mM)?
**A.** 1.06

**Q.** What about the “Cell survival at given concentration” value (AGS stomach cancer cells; 3 mM) of the same compound?
**A.** 1.02

**Q.** And the “Cell survival at given concentration” value (AGS stomach cancer cells; 10 mM)?
**A.** 0.98

**Q.** What about the “Cell survival at given concentration” value (A549 lung cancer cells; 1 μM, Table 7.2) of the same compound?
**A.** 0.95

**Q.** And the “Cell survival at given concentration” value (A549 lung cancer cells; 3 μM, Table 7.2)?
**A.** 0.97

**Q.** And the “Cell survival at given concentration” value (A549 lung cancer cells; 10 μM, Table 7.2)?
**A.** 1.03

**Q.** And the “Cell survival at given concentration” value (A549 lung cancer cells; 32 μM, Table 7.2)?
**A.** 1.01

**Q.** And the “Cell survival at given concentration” value (A549 lung cancer cells; 100 μM, Table 7.2)?
**A.** 1.00

**Q.** What about the “Cell survival at given concentration” value (A549 lung cancer cells; 317 μM) of the same compound?
**A.** 1.02

**Q.** And the “Cell survival at given concentration” value (A549 lung cancer cells; 1 mM)?
**A.** 1.01

**Q.** And the “Cell survival at given concentration” value (A549 lung cancer cells; 3 mM)?
**A.** 0.97

**Q.** And the “Cell survival at given concentration” value (A549 lung cancer cells; 10 mM)?
**A.** 0.98

**Q.** And the “Cell survival at given concentration” value ([3]; 1 μM, Table 8.2)?
**A.** 1.00

**Q.** What about the “Cell survival at given concentration” value ([3]; 3 μM, Table 8.2) of the same compound?
**A.** 0.99

**Q.** And the “Cell survival at given concentration” value ([3]; 10 μM, Table 8.2)?
**A.** 1.03

**Q.** What about the “Cell survival at given concentration” value ([3]; 32 μM, Table 8.2) of the same compound?
**A.** 1.02

**Q.** What about the “Cell survival at given concentration” value ([3]; 100 μM, Table 8.2) of the same compound?
**A.** 1.00

**Q.** And the “Cell survival at given concentration” value ([3]; 317 μM)?
**A.** 1.02

**Q.** What about the “Cell survival at given concentration” value ([3]; 1 mM) of the same compound?
**A.** 0.97

**Q.** What about the “Cell survival at given concentration” value ([3]; 3 mM) of the same compound?
**A.** 0.98

**Q.** And the “Cell survival at given concentration” value ([3]; 10 mM)?
**A.** 0.96

**Q.** What about the “Cell survival at given concentration” value (T24 bladder cancer cells; 1 μM, Table 3.2) of the same compound?
**A.** 1.02

**Q.** And the “Cell survival at given concentration” value (T24 bladder cancer cells; 3 μM, Table 3.2)?
**A.** 1.03

**Q.** What about the “Cell survival at given concentration” value (T24 bladder cancer cells; 10 μM, Table 3.2) of the same compound?
**A.** 0.99

**Q.** And the “Cell survival at given concentration” value (T24 bladder cancer cells; 32 μM, Table 3.2)?
**A.** 1.00

**Q.** What about the “Cell survival at given concentration” value (T24 bladder cancer cells; 100 μM, Table 3.2) of the same compound?
**A.** 1.01

**Q.** And the “Cell survival at given concentration” value (T24 bladder cancer cells; 317 μM)?
**A.** 1.03

**Q.** And the “Cell survival at given concentration” value (T24 bladder cancer cells; 1 mM)?
**A.** 1.02

**Q.** And the “Cell survival at given concentration” value (T24 bladder cancer cells; 3 mM)?
**A.** 1.00

**Q.** What about the “Cell survival at given concentration” value (T24 bladder cancer cells; 10 mM) of the same compound?
**A.** 1.00
